Data as given in article PMC11031590, “Narazaciclib, a novel multi-kinase inhibitor with potent activity against CSF1R, FLT3 and CDK6, shows strong anti-AML activity in defined preclinical models” (Scientific Reports, 2024).
Where “and” joins values, the source holds several entries; their conditions need not be identical. Equal values may be shown once.

Columns and labels:
CSF1R = CSF1R (Homo sapiens, UniProt P07333); test: CSF1R kinase inhibition assay; type: biochemical; details: read-out: IC50 CSF1R enzymatic activity
Sequence of CSF1R (P07333 20-972): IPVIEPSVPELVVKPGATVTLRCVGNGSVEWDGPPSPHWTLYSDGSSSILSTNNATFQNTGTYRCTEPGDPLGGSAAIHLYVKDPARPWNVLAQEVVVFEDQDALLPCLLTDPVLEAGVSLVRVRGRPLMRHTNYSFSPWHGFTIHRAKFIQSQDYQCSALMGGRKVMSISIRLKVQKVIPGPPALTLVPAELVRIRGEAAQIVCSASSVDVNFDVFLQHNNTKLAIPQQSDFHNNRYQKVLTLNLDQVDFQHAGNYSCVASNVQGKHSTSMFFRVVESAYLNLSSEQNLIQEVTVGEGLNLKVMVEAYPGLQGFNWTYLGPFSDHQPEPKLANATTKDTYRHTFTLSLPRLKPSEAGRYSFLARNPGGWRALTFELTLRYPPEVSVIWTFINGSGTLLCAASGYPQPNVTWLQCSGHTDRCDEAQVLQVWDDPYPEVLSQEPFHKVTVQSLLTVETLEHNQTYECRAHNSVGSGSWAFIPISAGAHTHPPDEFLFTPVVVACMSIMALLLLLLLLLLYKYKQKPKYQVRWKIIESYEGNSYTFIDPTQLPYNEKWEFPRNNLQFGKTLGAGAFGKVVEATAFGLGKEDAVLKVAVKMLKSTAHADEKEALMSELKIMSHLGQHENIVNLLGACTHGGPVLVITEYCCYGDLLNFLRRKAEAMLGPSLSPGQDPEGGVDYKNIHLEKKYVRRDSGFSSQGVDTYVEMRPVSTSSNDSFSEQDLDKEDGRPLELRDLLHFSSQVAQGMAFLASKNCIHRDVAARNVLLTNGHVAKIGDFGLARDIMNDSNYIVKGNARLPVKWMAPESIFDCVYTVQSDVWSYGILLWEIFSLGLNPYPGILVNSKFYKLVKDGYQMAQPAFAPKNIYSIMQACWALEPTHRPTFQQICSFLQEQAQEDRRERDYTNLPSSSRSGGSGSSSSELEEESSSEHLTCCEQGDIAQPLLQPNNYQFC
Experimental: For CSF1R inhibition, TK-substrate-biotin and ATP were incubated at room temperature for 40 min, followed by adding different concentrations of […] and TK-antibody-Cryptate into each well of the assay plate and incubation at room temperature for 1 h. The fluorescence signal was read at 615 nm (Cryptate) and 665 nm (XL665) on an Envision 2104 plate reader.

AM5512 AML-PDX = test: AM5512 systemic AML-PDX model; type: in vivo, NOD/scid mice; details: AM5512, 100 mg/kg orally every day
Experimental: (§1) For systemic AML-PDX models, the model establishment and narazaciclib pharmacology experiment were performed essentially as described previously. Briefly, 2 × 10^6 AM7407 cells, or 2 × 10^6 AM7577 cells, or 2 × 10^6 AM5512 cells, or 1.65 × 10^6 AM8096 cells were inoculated intravenously into 4- to 5-week-old female NOD/scid mice for AML development. Engraftment was confirmed by the presence of circulating human CD45+ cells (anti-human CD45 antibody, Cat. 304038, Biolegend) in peripheral blood. Mice with successful engraftment of AML-PDX were randomized into different treatment groups (N = 6) and received their designated treatments. Narazaciclib was administrated orally or intraperitoneally at 10 mg/kg, or 30 mg/kg, or 100 mg/kg every day throughout the study, while Cytarabine was administrated intraperitoneally at 3 mg/kg every day. Following the initiation of designated treatments, leukemic burden was monitored by flow cytometry with anti-human CD45 antibody on the peripheral blood every week as well as on the peripheral blood, bone marrow cells and splenocytes of mice at sacrifice. Mice were sacrifice once the followings are observed: body weight loss over 20%, reduced motility and activity, labored breathing, ruffled coat, hunched back and severe dehydration.

AML cell lines = test: In vitro proliferation assay, panel of 33 AML cell lines (summary statements); type: cell-based; details: a subset of AML lines; read-out: IC50 growth inhibition
Experimental: Narazaciclib was serially diluted with culture medium to 9 final assay concentrations from 0.01 to 100 μM. The assay was performed with both a negative control (vehicle) and a positive control (Cisplatin) in triplicate. The AML cell lines at log-growth phase were cultured in 96-well plates (black transparent flat bottom 96-well plate, Corning, Cat# 3603, FBS, ExCell Bio., Cat# FND500) in the presence of narazaciclib or Cisplatin at various concentrations for 72 h or 120 h (only for AML-193 cell line), followed by CTG readout according to the manufacturer’s instruction (CellTiter-Glo Luminescent Cell Viability Assay, Promega, Cat# G7573). Viability%=Lumdrug-Lummedium control/Lumcell control-Lummedium control×100%. Lumcell control-Lummedium controlas100%,LumMediumcontrolas0%. […]
Dose–response curves were fitted by a 4-parameter log-logistic model: Inhibition%=Bottom+Top-Bottom/1+10^logEC50-x∗HillSlope where Top and Bottom are the two asymptotes of the sigmoidal curve, EC50 is the relative IC50, concentration x is in log-10 scale and HillSlope is the slope at the EC50 point on the fitted curve. The fitted area under the curve (AUC) was calculated by: Inhibition%=Bottom+Top-Bottom/1+10^logEC50-x∗HillSlope where a represents the log10-transformed minimal concentration and b represents the log10-transformed maximal concentration. […]

Ba/F3-EGFR-L718Q = Ba/F3-EGFR-L718Q proliferation assay (CTG); type: cell-based; details: Mus musculus
Experimental: (§2) The recombinant Ba/F3 cell lines overexpressing human CSF1R, or human RBM6-CSF1R, or human ETV6-CSF1R were generated using a retrovirus vector (Kyinno Co., Ltd. Beijing). The recombinant Ba/F3 lines overexpressing human Kras G12C orEGFR-L718Q mutants, and different mutant variants of FLT3 were also similarly created as well. A standard proliferation assay via CTG readout was performed according to the vendor’s instructions (KYinno Biotechnology Co., Ltd. Beijing).

[1] = test system: Ba/F3-ETV6-CSF1R xenograft; test: Ba/F3-ETV6-CSF1R subcutaneous xenograft model; type: in vivo, NOD/scid mice; details: either 50 mg/kg or 100 mg/kg
Source text: The subcutaneous cell line xenograft (CDX) models and systemic patient-derived xenograft (PDX) models of AML have been extensively described before. For the subcutaneous MV-4-11 CDX model, 5 × 10^6 MV-4-11 tumor cells harvested from exponential growth phase were mixed with Matrigel (1:1) and then inoculated into the right front flank region of 6- to 7-week-old female NOD/scid mice for tumor development. MV-4-11 tumor-bearing mice were randomized into 5 groups (N = 8) when their tumor volume reached approximately 100 mm^3 and received their designated treatments following randomization. Narazaciclib was administrated intraperitoneally at 100 mg/kg twice per week for 3 weeks, while Azacitidine was administrated intraperitoneally at 3 mg/kg twice per week for 3 weeks. For the subcutaneous Ba/F3-ETV6-CSF1R CDX model, 1 × 10^6 Ba/F3-ETV6-CSF1R tumor cells harvested from exponential growth phase were mixed with Matrigel (1:1) and then inoculated into the right front flank region of 6- to 8-week-old female NOD/scid mice for tumor development. Ba/F3-ETV6-CSF1R tumor-bearing mice were randomized into 5 groups (N = 6) when their tumor volume reached approximately 100 mm^3 and received their designated treatments following randomization. […] Tumor volume and body weight were measured at different time points and tumor growth inhibition (TGI) was used as index to determine the therapeutic efficacy.

Ba/F3-FLT3-N701K = Ba/F3-FLT3-N701K proliferation assay; type: cell-based, mouse
Experimental: as §2

SIK2 = SIK2 (Homo sapiens, UniProt Q9H0K1); test: Additional kinase inhibition panel; type: biochemical
Sequence of SIK2 (Q9H0K1 whole entry): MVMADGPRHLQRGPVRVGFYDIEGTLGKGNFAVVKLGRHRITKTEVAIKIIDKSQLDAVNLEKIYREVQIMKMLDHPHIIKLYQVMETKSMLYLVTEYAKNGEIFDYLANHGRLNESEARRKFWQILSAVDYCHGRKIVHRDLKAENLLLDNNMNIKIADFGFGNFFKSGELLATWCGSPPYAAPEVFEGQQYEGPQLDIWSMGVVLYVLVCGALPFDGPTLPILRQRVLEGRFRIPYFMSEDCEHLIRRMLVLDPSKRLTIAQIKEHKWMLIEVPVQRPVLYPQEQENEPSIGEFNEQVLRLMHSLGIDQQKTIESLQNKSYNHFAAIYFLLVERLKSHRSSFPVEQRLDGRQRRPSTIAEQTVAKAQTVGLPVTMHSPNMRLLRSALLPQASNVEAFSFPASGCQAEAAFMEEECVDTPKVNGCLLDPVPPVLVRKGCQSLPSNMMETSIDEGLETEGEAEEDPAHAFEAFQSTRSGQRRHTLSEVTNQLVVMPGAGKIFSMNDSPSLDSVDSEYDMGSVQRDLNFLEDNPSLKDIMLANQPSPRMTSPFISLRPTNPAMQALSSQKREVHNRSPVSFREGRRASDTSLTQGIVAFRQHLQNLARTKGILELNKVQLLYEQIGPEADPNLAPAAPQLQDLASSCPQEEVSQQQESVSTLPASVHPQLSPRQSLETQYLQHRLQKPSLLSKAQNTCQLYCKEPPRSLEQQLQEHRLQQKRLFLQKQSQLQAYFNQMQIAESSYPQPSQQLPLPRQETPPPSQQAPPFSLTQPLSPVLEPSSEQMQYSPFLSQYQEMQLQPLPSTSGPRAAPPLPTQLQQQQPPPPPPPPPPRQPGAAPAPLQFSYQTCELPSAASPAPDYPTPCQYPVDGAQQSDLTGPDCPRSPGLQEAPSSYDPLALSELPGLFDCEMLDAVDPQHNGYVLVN
Source text: Supplement 41598_2024_59650_MOESM2_ESM.docx, table 4: Supplemental Table S4. IC50 of Narazaciclib against additional kinases | column: Narazaciclib (µM); Narazaciclib metabolite (µM)

AM7407 AML-PDX = test: AM7407 systemic AML-PDX model; type: in vivo, NOD/scid mice; details: AM7407, 100 mg/kg orally every day
Experimental: as §1

Ba/F3-FLT3-ITD (N701K) = Ba/F3-FLT3-ITD (N701K) proliferation assay; type: cell-based, mouse
Experimental: as §2

parental Ba/F3 line = test: Parental Ba/F3 proliferation assay (CTG); type: cell-based; details: Mus musculus, BaF3
Experimental: as §2

Ba/F3-CSF1R cell line = test: Ba/F3-CSF1R proliferation assay (CTG); type: cell-based, mouse
Experimental: as §2

IC50 (CSF1R): ~0.285 nM and 0.29 nM
IC50 (Ba/F3-EGFR-L718Q): 633 nM
% of Ba/F3-FLT3 (IC50) (Ba/F3-FLT3-N701K): 131.40%
IC50 (Ba/F3-FLT3-N701K; Mus musculus): 396 nM
IC50 (SIK2): 2 nM
% of Ba/F3-FLT3 (IC50) (Ba/F3-FLT3-ITD (N701K)): 38.91%
IC50 (Ba/F3-FLT3-ITD (N701K); Mus musculus): 117 nM
IC50 (Ba/F3-CSF1R cell line; Mus musculus, + 100 ng/ml CSF-1): ~3.54 nM
SMILES: CN1CCN(c2ccc(Nc3ncc4cc(C#N)c(=O)n(C5CCCC5)c4n3)cc2)CC1 [Narazaciclib, narazaciclib]
response of model (AM5512 AML-PDX): did not respond
IC50 (AML cell lines): < 1500 nM
tumor growth [1]: significantly delayed the tumor growth
response of model (AM7407 AML-PDX): did not respond
IC50 (parental Ba/F3 line): 1350 nM
times more potent than GW2580 (Ba/F3-CSF1R cell line; Ba/F3-CSF1R in the presence of CSF1): 16 times
